Measurements published in paper PMC7719179, “Small molecule inhibition of Dynamin-dependent endocytosis targets multiple niche signals and impairs leukemia stem cells” (Nature Communications, 2020).
“And” between values parts separate entries of the source, which are not always exact repeats. Equal values may be shown once.

Tests used:
[1] = test system: ETP12 and ALL8 patient-derived xenografts; assay: Xenograft models of human T-ALL (ETP12, ALL8): leukemic burden in blood, bone marrow, spleen; spleen weight; assay type: in vivo
Description: (§1) Patient-derived xenograft models were established as previously described[97],[98]. All experiments were pre-approved by the Human Research Ethics Committee of the University of New South Wales (UNSW), the UNSW Animal Care and Ethics Committee, the Alfred Health Human Ethics Committee and the AMREP Animal Ethics Committee. For transplantation assays, 10^6 splenocytes harvested from successfully engrafted primary human ETP-ALL or T-ALL xenografts were injected into nonobese diabetic/severe combined immunodeficient (NOD.Cg-Prkdc^scid, also termed NOD/SCID) or NOD/SCID/Il2rg^tm1wjl/SzJ (NSG) mice[99]. Moreover, 1.5 × 10^6 cells splenocytes harvested from successfully engrafted patient-derived AML xenografts were injected into nonobese diabetic/severe immunodeficient (NOD.Cg-Rag1^tm1MomIl2rg^tm1wjl/SzJ, also termed NRG) mice expressing human IL-3, human GM-CSF and human SCF from the SGM3 triple transgene (NRGS)[100]. Engraftment into recipients was monitored by FACS analysis of peripheral blood as previously described. […] Both males and females were used. […] Kaplan–Meier survival and statistical analyses were performed using GraphPad Prism. 6.0 software (GraphPad Software, Inc.).
Spleen and sternum from recipients were collected, incubated at least 24 h in 3.7% neutral buffered formalin (pH 7.4), embedded in paraffin and sectioned at 8 μm onto Superforst-Plus slides. Samples were incubated with an anti-human CD45 antibody (Dako, #M0701) in Dako Autostainer Plus solution, then incubated with a sheep anti-mouse IgG conjugated to HRP and processed as per standard protocols using 3,3’ Diaminobenzidine staining (#ab64238, Abcam) for all immunoblots, as previously described. Samples were imaged and annotated using an Aperio ScanScope and software system (Leica Biosystems). […]
(blue circles) and ALL8 (red open circles) 24 hours after the last dose of drugs was administered.
therapy. Median is indicated (bar) with Mean ± SEM indicated for ETP12 and ALL8, 2-way ANOVA
period of administration is indicated in light grey.

Ba/F3-SGM3R cells = assay: Survival of cytokine-dependent Ba/F3-SGM3R cells, 48 h; assay type: cell-based, murine; details: result in words
Excerpt: The coding sequence of murine Csf2ra (gm-csfr) and c-Kit was amplified by PCR from cDNA of bone marrow mononuclear cells of a healthy WT donor using primers mGmcsfr-FL-F and mGmcsfr-FL-R, and mKit-FL-F and mKit-FL-R, respectively (Table 3). The PCR product was cloned into the XhoI and EcoRI sites of pMIG-R1, which was kindly given by Pear et al.[82],[83]. Ba/F3 cells were infected with pMIG-R1/Gmcsfr retroviral supernatants produced in 293T cells, transduced cells were sorted with a BD Influx (BD Australia) and selected by culture in medium supplemented with 25 ng/mL rmGm-csf (#305-03, Pepro Tech, Rocky Hill NJ, USA) for 7 days. Finally, Ba/F3 cells stably expressing Gm-csfr were infected with pMIG-R1/Kit retroviral supernatants produced in 293T cells to generate Ba/F3-SMG3R cells, which were sorted with a BD Influx and maintained in medium supplemented with 5 ng/mL rmIL-3 (#213-13, Pepro Tech, Rocky Hill NJ, USA).
Supplementary Figure 8. […]
Basal levels of live cells were measured in BaF3-SGM3R cells cultured without cytokines (white bar). b, Levels of activated Stat5 (pStat5) in BaF3-SGM3 R cells stimulated with IL-3 (purple bars) and GM -CSF (yellow bars), and SCF-induced phospho-Erk (green bars), treated with increasing doses of Dynole 34-2 assessed by flow cytometry.

[2] = test system: AML01-307 and AML18 patient-derived xenografts; assay: Survival (Kaplan-Meier) and leukemia growth delay in AML01-307 and AML18 xenograft recipients; assay type: in vivo, human; details: PDX AML01-307
Description: as §1, with “Inc.). […]” for “Inc.).”

SMILES: CCCCCCCCNC(=O)C(C#N)=Cc1cn(CCCN(C)C)c2ccccc12 [Dynole 34-2, 2-Cyano-N-octyl-3-(1-(3-dimethylaminopropyl)-1H-indol-3-yl)-acrylamide]
- Absolute numbers human CD45+ cells ([1]; ALL8, BM): 6540000 and 4120000 and 6090000
- Proportion of hCD45+ (%) in peripheral blood ([1]; ALL8, Time (weeks) 1): 1.0%
- Proportion of hCD45+ (%) in peripheral blood ([1]; ALL8, Time (weeks) 5): 2.0%
- Proportion of hCD45+ (%) in peripheral blood ([1]; ALL8, Time (weeks) 6): 64.0%
- Absolute numbers human CD45+ cells ([1]; ETP12, BM): 4510000 and 5170000 and 3540000
- Proportion of hCD45+ (%) in peripheral blood ([1]; ETP12, Time (weeks) 1): 0.1% and 0.0% and 0.2%
- Proportion of hCD45+ (%) in peripheral blood ([1]; ETP12, Time (weeks) 2): 0.2% and 0.1% and 0.3% and 0.0%
- Proportion of hCD45+ (%) in peripheral blood ([1]; ETP12, Time (weeks) 3): 2.8% and 0.4% and 7.0% and 8.6% and 4.0% and 0.0% and 0.2%
- Proportion of hCD45+ (%) in peripheral blood ([1]; ETP12, Time (weeks) 7): 35.2%
- patient-derived leukemic cells in bone marrow and spleen, Dynole 34-2 combined with chemotherapy compared with chemotherapy alone ([1]; ETP12 and ALL8 recipients, 24 h after last administration, in words): at least tenfold less
- leukemic cells in the peripheral blood, bone marrow and spleen, single agent ([1]; ETP12 and ALL8 xenografts, result in words): significant reduction in leukemic cells
- Spleen weight ([1]; PDX ALL8): 0.116 g and 0.076 g and 0.075 g
- Spleen weight ([1]; PDX ETP12): 0.157 g and 0.109 g and 0.091 g
- cell death of Ba/F3-SGM3R cells (Ba/F3-SGM3R cells): induced cell death in a dose-dependent manner
- Time to leukemia [2]: 7 weeks and 8.71 weeks and 8.57 weeks and 7.57 weeks and 8.43 weeks
